Results as given in PubChem BioAssay AID179 (DTP/NCI, 2004).
“And” between values parts separate entries of the source, which are not always exact repeats. Identical values can stand only once. The source made the active and inactive calls.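 How the source made its calls: active means compounds giving half or more protection of infected cells from virus-caused growth loss, again on retest; inactive means the rest.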 Where a SMILES comes first, the peptide text is derived from it. The star is where a group is joined. Boc = CC(C)(C)OC(=O)*

Tested on: CEM cells HIV-1 protection, formazan growth assay
Experiment: NCI AIDS Antiviral Assay
Settings: for IC50: measured here: growth of uninfected CEM cells
Procedure, shortened: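 CEM (human) cells, HIV-1 infected vs uninfected, 5-point dosing, formazan growth read-out. Retest threshold 50% protection.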

Row | SMILES | EC50 [µM] | IC50 | outcome
1 | CC1=C2C(=O)c3ccccc3C2=C(C)S(=O)(=O)O1 | > 955 | 832 µM | 
2 | C[C@@]12C[C@@H](OC(=O)[C@]1(C)O)[C@@H]([C@]1(O)CC[C@H]3[C@@H]4C[C@H]5O[C@]56CC=CC(=O)[C@]6(C)[C@H]4CC[C@@]31C)C2 | 0.02 | 0.324 µM | 
3 | O=C1CC(=O)N2C(=O)CC(=O)N12 | > 537 | > 537 µM | 
4 | C[C@]12CC[C@H](OS(=O)(=O)O)CC1CCC1C2CC[C@@]2(C)C1CC[C@@H]2CO (stereo not given in full) | > 60.3 | > 60.3 µM | 
5 | O=C(C[n+]1ccccc1)N=N/C(C(=O)Nc1c(Cl)c(O)c2ccccc2c1O)=C1/C(=O)Oc2cc(O)ccc2C1=O | > 22.4 | 12 µM | 
6 | COc1ccc2c(c1OC)C(=O)C2 | > 200 | > 200 µM | 
7 | O=C1c2cc(-c3ccccc3)cnc2S(=O)(=O)N1c1ccc(Br)cc1 | > 200 | 16.6 µM | 
8 | COc1cc2c(cc1OC)CCN=C2 |  |  | inactive
9 | COc1cccc(N2C(=O)CSC2c2c[nH]c3ccccc23)c1 (stereo not given) | > 22.4 | > 22.4 µM | 
10 | CC1CN(C=O)CC(C)N1CCN1C(C)CN(C=O)CC1C (stereo not given) | > 288 | > 288 µM | 
11 | CO/C(N)=C(\C#N)N=Cc1ccsc1 | > 200 | 126 µM | 
12 | N#CC(C#N)=CN1CCNC1=S | > 200 | > 200 µM | 
13 | C/C(CC1(O)C(=O)Nc2ccccc21)=N\O (stereo not given) | > 200 | > 200 µM | 
14 | O=C(/C=C/c1ccc(O)c(O)c1)OCCOC(=O)/C=C/c1ccc(O)c(O)c1 | > 200 | 10 µM | 
15 | CCOC(=O)C1=c2[nH]c3cccc4cccc(c43)n2C(=O)CC1 | > 200 | 12.3 µM | 
16 | O=S(=O)(O)SC/C=C\CSS(=O)(=O)O |  |  | inactive
17 | C#C[C@@]1(O)CCCC2=CC(=O)C[C@]21C |  |  | inactive
18 | O=S(OCC1COS(=O)O1)OCC1COS(=O)O1 (stereo not given) | > 776 | 77.6 µM | 
19 | CCn1c(=O)c2c3ccc(OC)cc3[nH]c2c2ccc(OC)cc21 | > 200 | 56.2 µM | 
20 | N#CC(C#N)=C1C(C#N)=C(N)NC12OCCO2 | > 200 | > 200 µM | 
21 | O=c1[nH]n2c(=O)cc[nH]c2c1-c1nnns1 | > 30.9 | > 30.9 µM | 
22 | NCCCCNc1ccc2c(=O)[nH][nH]c(=O)c2c1 |  |  | inactive

Row | SMILES | EC50 [µM] | IC50 | outcome
23 | O=C(O)c1nc2ccc(C(F)(F)F)cc2nc1NCc1ccc(Cl)c(Cl)c1 | > 200 | 19.1 µM | 
24 | CC(=O)Oc1cc2c(cc1OCC(F)(F)F)[C@H]1CC[C@]3(C)[C@@H](OC(C)=O)CC[C@H]3[C@@H]1CC2=O | > 200 | 22.4 µM | 
25 | COC(=O)C1=C2Nc3ccccc3C23CCN2C(=O)C[C@H](C1)[C@@H]23 (stereo not given in full) |  |  | inactive
26 | CC(=O)Nc1ccc(S(=O)(=O)N/N=C/CN2C(=O)c3ccccc3C2=O)cc1 | 26.9 | 89.1 µM | 
27 | CC1(C)OC2C(=O)C=C(COCc3ccccc3)C2O1 (stereo not given) | > 200 | 28.2 µM and 10 µM | 
28 | CC(=O)OCC1OC(N2C(C)=C(C(C)=O)C(c3ccc(Cl)cc3)C(C#N)=C2S)C(OC(C)=O)C(OC(C)=O)C1OC(C)=O (stereo not given) | > 200 | 29.5 µM | 
29 | C/C(O)=C(/C=N\C(=S)Nc1ccc(Cl)c(Cl)c1)C(=O)Nc1ccccc1C | > 79.4 | 40.7 µM | 
30 | CCCCCCCCCCCCCC(=O)OCC1OC(n2cc(C)c(=O)[nH]c2=O)CC1N=[N+]=[N-] (stereo not given) | 0.00372 | 102 µM | 
31 | COC(=O)C(=O)C(C(=O)C(=O)Nc1ccc(C)cc1C)c1nc2ccc(Cl)cc2[nH]c1=O (stereo not given) | > 57.5 | 47.9 µM | 
32 | O=C1C(=O)c2ccccc2C(O)=C1C(C1=C(O)c2ccccc2C(=O)C1=O)c1ccc(C(C2=C(O)c3ccccc3C(=O)C2=O)C2=C(O)c3ccccc3C(=O)C2=O)cc1 | > 200 | 9.55 µM | 
33 | CC(C)(C)CP(=S)(CCP(CCP(=S)(CC(C)(C)C)CC(C)(C)C)CCP(=S)(CC(C)(C)C)CC(C)(C)C)CC(C)(C)C | > 12.3 | > 12.3 µM | 
34 | CSC1=C(C#N)C(=O)N(c2ccc(Cl)cc2)C(=O)C1C#N (stereo not given) | > 200 | 135 µM | 
35 | N#Cc1cccc(/C=N/N=C(\N)NO)c1 | > 479 | 37.2 µM | 
36 | CC(=O)OC1CCn2nnc(CO[Si](C)(C)C(C)(C)C)c21 (stereo not given) |  |  | inactive
37 | CC(=O)Nc1[nH]n(C)c(=O)c1-c1nnc(C)s1 | > 977 | 437 µM | 
38 | N[C@H]1c2c(Cl)cccc2C(=O)[C@H]1O | > 200 | 11 µM | 
39 | CC(=O)Oc1ccc(-c2oc3c([C@H]4C=C(C)CC(c5ccc(OC(C)=O)cc5OC(C)=O)[C@@H]4C(=O)c4ccc(OC(C)=O)c(CC=C(C)C)c4OC(C)=O)c(OC(C)=O)cc(OC(C)=O)c3c(=O)c2CC=C(C)C)c(OC(C)=O)c1 (stereo not given in full) | > 8.13 | > 8.13 µM | 
40 | CO/C1=C\C(C)=C\C(C)C(O)C(C)C/C(C)=C/C=C/C(OC)C(C(C)C(O)C(C)C2(O)CC(O)C(C)C(C(C)C)O2)OC1=O (stereo not given) | > 0.2 | 0.0129 µM | 
41 | CC(=O)O[C@@H]1CCN(Cc2ccccc2)C[C@@H]1CN(C(C)=O)C12CC3CC(CC(C3)C1)C2 | > 8.51 | 8.32 µM | 
42 | O=C1/C(=C\c2cccc(Oc3ccccc3)c2)SC(c2ccccc2)N1c1cccc([N+](=O)[O-])c1 (stereo not given) | > 200 | 39.8 µM | 
43 | COC(=O)CNC(=O)C(Cc1ccccc1)NC(=O)C(Cc1ccccc1)NC(=O)OC(C)(C)C (stereo not drawn) (Boc-Phe-Phe-Gly-OMe; configuration not given here) | > 200 | 24 µM | 
44 | CCOC(=O)/C(=C\n1c(=O)sc2ccccc21)C(=O)c1ccccc1 | > 200 | 42.7 µM | 

Row | SMILES | EC50 [µM] | IC50 | outcome
45 | COC(=O)C1=CCC(n2cnc3c(Cl)nc(N)nc32)CC1 (stereo not given) | > 115 | 47.9 µM | 
46 | O=C1C=C(Nc2cc(Cl)ccc2Cl)c2ccccc2C1=O | > 3.16 | > 3.16 µM | 
47 | O=C1NC(=S)NC1C(Cc1ccccc1)c1ccccc1 (stereo not given) | > 200 | 85.1 µM | 
48 | [CH3][Sn]1([CH3])[O]C(=O)CCN=Cc2c(ccc3ccccc23)[O][Sn]([CH3])([CH3])[O]C(=O)CCN=Cc2c(ccc3ccccc23)[O]1 | > 200 | 20 µM | 
49 | CC(C)(C)c1cc(CCCCCCCC2(CCCCCCCc3cc(C(C)(C)C)cc(C(C)(C)C)c3)OC(COCCOCCCCCC#N)C(COCCOCCCCCC#N)O2)cc(C(C)(C)C)c1 (stereo not given) |  |  | inactive
50 | CCNC(=O)c1ccccc1S(C)=O (stereo not given) | > 200 | > 200 µM | 
51 | O=C1CC(c2ccc(Cl)cc2)=Nc2ccccc2N1 | 6.31 | 95.5 µM | 
52 | CC(C)(C)[Si](C)(C)OCC1OC(n2ccc(=O)[nH]c2=O)C(O[Si](C)(C)C(C)(C)C)/C1=C/C#N (stereo not given) | > 200 | 8.13 µM | 
53 | O=C1CN2C(Cl)(Cl)C2(c2ccccc2)c2cc(Cl)ccc2N1CC(F)(F)F (stereo not given) | > 200 | 29.5 µM | 
54 | Nc1ncc(N)c(N)n1 | > 200 | 132 µM | 
55 | COc1cc(C2OCC3C(c4ccc(O)c(OC)c4)OCC23)ccc1O (stereo not given) |  |  | inactive
56 | O=C1CCC2CCC(=O)N12 | > 1780 | > 1780 µM | 
57 | CN(/N=C/c1ccccn1)C1=NCCCCN1 | > 200 | > 200 µM | 
58 | CC12CCC(C(Br)C1=O)C2(C)CBr (stereo not given) |  |  | inactive
59 | CC(=O)Oc1ccc2c(c1)c1c(=O)oc(N(C)C)nc1n2Cc1ccccc1 | > 200 | 120 µM | 
60 | O=c1scc(-c2ccc([N+](=O)[O-])cc2)s1 | > 6.03 | > 6.03 µM | 
61 | COc1ccc(COCC[C@H](C)OC2OC(CO[Si](C)(C)C(C)(C)C)C(OC(=O)CCCN=[N+]=[N-])C(OC(=O)CCCN=[N+]=[N-])C2OC(=O)CCCN=[N+]=[N-])cc1 (stereo not given in full) | > 200 | 26.3 µM | 
62 | CC/C=C1\N=C(c2ccc(Cl)cc2)OC1=O | > 151 | 126 µM | 
63 | CS(=O)(=O)CC1=Nc2nnc(CCCCCCCc3nnc4n3C(=O)C(CS(C)(=O)=O)=N4)n2C1=O | > 10 | > 10 µM | 
64 | CN(C)c1ccc(/C=C/c2ccc3ccccc3[n+]2C)cc1 | 0.0631 | 0.398 µM | 
65 | Clc1ccccc1C(n1ncc2ccccc21)n1ncc2ccccc21 |  |  | inactive
66 | CCN(CC)c1cccc2c1/C(=N/O)CCCC2 | > 200 | 120 µM | 

Row | SMILES | EC50 [µM] | IC50 | outcome
67 | N#CC(Cc1ccccc1)C(N)=O (stereo not given) | > 200 | > 200 µM | 
68 | c1ccc(OCc2nnc(CCCCCCCCc3nnc(COc4ccccc4)o3)o2)cc1 | > 200 | > 200 µM | 
69 | CN(C)C=Nc1cccc2cnccc12 | > 200 | 166 µM | 
70 | Cc1cc(C)c(C(=O)c2cccc(C)c2C(=O)O)c(C)c1 | > 200 | > 200 µM | 
71 | COc1ccc2c(c1OC)C1CCCCC1SCC2=O (stereo not given) | > 200 | 105 µM | 
72 | COC(=O)c1c(CC(Cc2ccc3c(c2)CCCC3)C(=O)OC)ccc2c1CCCC2 (stereo not given) | > 200 | 95.5 µM | 
73 | CC/C=C(\C(=C/CC)[N+](=O)[O-])[N+](=O)[O-] | > 200 | 3.31 µM | 
74 | CC1=NN(C(=O)CC(=O)NC(=O)CC(=O)Nc2ccccc2F)C(=O)C1N=Nc1ccc([N+](=O)[O-])cc1 (stereo not given) | > 70.8 | 44.7 µM | 
75 | COC(=O)N1C2CCCCC2=NN(c2ccccc2)N1C(=O)OC (stereo not given) | > 204 | > 204 µM | 
76 | C[C@@H]1OCC(O)C([C@H]2OC(c3ccccc3)=N[C@H]2CO)O1 (stereo not given in full) | > 200 | > 200 µM | 
77 | C(=C(c1ccc(OC2CCCCO2)cc1)c1ccc(OC2CCCCO2)cc1)c1ccccc1 (stereo not given) | > 2 | 1.12 µM | 
78 | CCCCCCOP(=O)(OCCCCCC)OC(C(=O)OC)C(F)(F)F (stereo not given) | > 200 | 44.7 µM | 
79 | CC(C)/C(Cl)=N\OC(=O)Nc1ccc(S(N)(=O)=O)cc1 | > 200 | 9.77 µM | 
80 | C=CCOCCCC(=O)C(=[N+]=[N-])C(=O)OC | > 251 | 57.5 µM | 
81 | CC[C@H](CCCC[C@H]1CC[C@@H]2CC(=O)C[C@H]12)OC | > 200 | 117 µM | 
82 | CC(C)(CO)NCC(O)CS(=O)(=O)O (stereo not given) | > 200 | > 200 µM | 
83 | CCOC(=O)c1cn(C)c2c1C(=O)C(C(=O)OCC)CCN2C(=O)OCC (stereo not given) | > 240 | > 240 µM | 
84 | O=C1c2cc(Cl)ccc2NC(=NCCCl)C2CSCN12 (stereo not given) | > 200 | > 200 µM | 
85 | CC(C)=CC(=O)C/C(=N\NC(N)=S)C(=O)Nc1ccc(Cl)cc1 | > 37.2 | > 37.2 µM | 
